ChEMBL document CHEMBL1127962, “Investigation of the effects of synthetic, non-cytotoxic immunophilin inhibitors on MDR” (1994)

Columns and labels:
[1] = target: Peptidyl-prolyl cis-trans isomerase FKBP1A (Homo sapiens) (UniProt P62942); test: In vitro inhibition of non-cytotoxic immunophilin FK506 binding protein activity
KB = test: In vitro reversal of multidrug resistance (MDR) in human carcinoma cell line; assay type: functional

Peptidyl-prolyl cis-trans isomerase FKBP1A (Homo sapiens), sequence (P62942 whole entry): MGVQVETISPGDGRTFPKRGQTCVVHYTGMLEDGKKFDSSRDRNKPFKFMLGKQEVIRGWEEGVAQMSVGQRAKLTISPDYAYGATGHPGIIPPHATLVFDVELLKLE

| Structure (SMILES) | Activity [1] | Activity (KB) |
| --- | --- | --- |
| COc1cccc(C(=O)CN2CCCCC2C(=O)N[C@@H](Cc2ccccc2)C(=O)N[C@@H](CC(C)C)C(=O)OC(C)(C)C)c1 (some centres undefined) | 6 µM | 7 µM |
| COc1cccc(C(=O)CN2CCCCC2C(=O)N[C@@H](Cc2ccccc2)C(=O)N[C@H](C(=O)OC(C)(C)C)C(C)C)c1 (some centres undefined) | 3 µM | 6 µM |
| C=CCOC/C=C/[C@@H](NC(=O)[C@H](Cc1ccccc1)NC(=O)C1CCCCN1CC(=O)c1cccc(OC)c1)C(C)C (some centres undefined) | 3 µM | 6 µM |
| COc1cccc(C(=O)CN2CCCCC2C(=O)N[C@@H](Cc2ccccc2)C(=O)N[C@H](/C=C/I)C(C)C)c1 (some centres undefined) | 2 µM | 30 µM |
| COC(=O)[C@H](Cc1ccccc1)NC(=O)[C@@H](NC(=O)[C@H](Cc1ccccc1)NC(=O)C1CCCCN1CC(=O)c1cccc(OC)c1)C(C)C (some centres undefined) | 1 µM | >50 µM |
| COc1cccc(C(=O)CN2CCCCC2C(=O)N[C@@H](Cc2ccccc2)C(=O)N[C@H](/C=C/COC(C)=O)C(C)C)c1 (some centres undefined) | 2 µM | >50 µM |
| COC(=O)C(=O)N1CCCC1C(=O)N[C@@H](Cc1ccccc1)C(=O)OC(C)(C)C (some centres undefined) | > 50 µM | >50 µM |
| COC(=O)[C@H](Cc1ccccc1)NC(=O)[C@@H](NC(=O)[C@H](Cc1ccccc1)NC(=O)C1CCCCN1CC(=O)c1ccc2ccccc2c1)C(C)C (some centres undefined) | 0.3 µM | >50 µM |
| C[C@H](/C=C/c1ccc(C(=O)C(=O)N2CCCC2C(=O)N[C@@H](Cc2ccccc2)C(=O)OC(C)(C)C)s1)CO (some centres undefined) | 100 µM | >50 µM |
| C[C@H](/C=C/c1ccc(C(=O)C(=O)N2CCCC2C(=O)N[C@@H](CC2CCCCC2)C(=O)OC(C)(C)C)s1)CO (some centres undefined) | > 100 µM | 13 µM |
| CC(C)[C@H](NC(=O)[C@H](Cc1ccccc1)NC(=O)C1CCCCN1CC(=O)c1ccc2ccccc2c1)C(=O)OC(C)(C)C (some centres undefined) | 1 µM | 5 µM |
| C#C[C@@H](NC(=O)[C@H](Cc1ccccc1)NC(=O)C1CCCCN1CC(=O)c1cccc(OC)c1)C(C)C (some centres undefined) | 5 µM | 11 µM |
| C[C@H](/C=C/c1ccc(C(=O)C(=O)N2CCCC2C(=O)OC(C)(C)C)s1)CO (some centres undefined) | > 100 µM | >50 µM |
| COc1cccc(C(=O)CN2CCCCC2C(=O)N[C@@H](Cc2ccccc2)C(=O)OC(C)(C)C)c1 (some centres undefined) | 3 µM | >50 µM |
| C=CCC(CC(C)C[C@H](C)C[C@H](OC)C1OC(O)(C(=O)C(=O)N2CCCCC2)[C@H](C)C[C@@H]1OC)C(=O)C[C@H](O)[C@@H](C)[C@H](OC(C)=O)C(C)CC1CC[C@@H](O)C(OC)C1 (some centres undefined) | 0.001 µM | 5 µM |
| CCC(C)C[C@H](NC(=O)C1CCCCN1CC(=O)c1cccc(OC)c1)C(=O)OC(C)(C)C (some centres undefined) | 8 µM | >50 µM |
| COc1cccc(C(=O)CN2CCCCC2C(=O)N[C@@H](Cc2ccccc2)C(=O)N[C@H](/C=C/COC(=O)C(F)(F)F)C(C)C)c1 (some centres undefined) | 1 µM | 49 µM |
